The values that follow come from patent US20180305408A1, “COMPOUNDS FOR INDUCING TISSUE FORMATION AND USES THEREOF” (HISTIDE AG, priority 2015, published 2018).

No end group written: not given here.

The subject of data set [1] is Human Hematopoietic Stem Cells. Nature of the data set: Differentiation of human hematopoietic stem cells: loss of stemness marker CD-34+ (immunostaining). In kind it is cell-based. The following applies: compound in cell media solution, 400 ng/mL, 48 hours.
Data set [2] in a line: Stability of non-covalent coating of fluorescent peptides on apatite ceramics or type-I collagen sponge. In kind it is physicochemical. The following applies: FITC-bound peptide on apatite ceramics or type-I collagen sponge; after 3, 7 or 10 days. How it is done: Non-covalent modifications of the materials were performed in Air Atmosphere at room temperature. The non-covalent coating strategy consisted in using a mixture of compound of the invention (SEQ ID NO: 9; concentration of 1×10^−3M) with an apatite ceramics implant or a mixture of compound of the invention (SEQ ID NO: 10; concentration of 1×10^−3M) with a type-I collagen sponge. The non-covalently coated conventional materials were characterized by using fluorescent peptides (Here SEQ ID NO: 9 and 10 covalently bound to fluorescein isothiocyanate (FITC), FIG. 3). The results shown here in FIG. 3 were obtained from experiments performed with apatite ceramics and a type-I collagen sponge. […] Indeed, after 3, 7 or 10 days, the osteogenic peptides were still coupled to the ceramics or the type-I collagen (FIG. 4). The biomaterial surface was characterized by X-ray photoelectron spectroscopy (Table 1). The X-ray photoelectron spectroscopy was performed as described in the Methods section.

The next data set concerns osteoblast progenitors. Briefly: Osteogenic differentiation of osteoblast progenitors on coated materials (Osteopontin staining, Runx2 Q-PCR). In kind it is cell-based. To be noted: 48 hours on coated apatite ceramics or type-I collagen sponge vs native materials. On the procedure:
The cells were first fixed for 20 min with 4% paraformaldehyde/PBS at 4° C. After fixation, the cells were permeabilized in PBS containing 1% Triton X-100 for 15 min. Runx2, Osterix, Stro-1, Vinculin, Phalloidin, Osteopontin, Sox2, Sox9 antibodies were visualized by treating the cells with 1% (v/v) specific monoclonal antibodies for 1 hour at 37° C. Then the samples were incubated with Alexa Fluor® 568 or 647 (F(ab′)2 fragment of IgG(H+L)) during 30 min at room temperature. The cell nuclei were counterstained in 20 ng/mL DAPI for 10 min at room temperature.
Total RNA was extracted by using the RNeasy total RNA kit (Qiagen®) according to the manufacturer's instructions. Purified total RNA was used as a template in order to make cDNA by a reverse transcription reaction (Gibco Brl®) with random primers (Invitrogen®). […] Data were analyzed with the iCycler IQ™® software and compared by the ΔΔCt method. […]
The effect of the GFR-binding compounds as defined herein (SEQ ID NO: 19 and 20) on the differentiation of osteoblast progenitors was evaluated. […]
Finally, it was verified that the osteoblast progenitors were differentiated into mature osteoblasts by analyzing the expression of the osteogenic biomarker Runx2. An increase in the Runx2 gene expression after 24 hours of culture (FIG. 8a) was observed by using Quantitative Real Time Polymerase Chain Reaction as described in the Methods section.

In data set [3] the test system is hMSCs. Nature of the data set: ALP activity of hMSCs on type-I collagen sponge coupled with compound. In kind it is cell-based, Human. The following applies: after 1 week of culture on type-I collagen sponge. The text has this:
Finally, it was verified that the hMSCs were differentiated into mature osteoblasts by analyzing the activity of the osteogenic biomarker ALP (Alkaline Phosphatase Activity). We observed an increase in the ALP activity after 1 week of culture on type-I collagen sponge coupled with GFR-binding compounds as defined herein (SEQ ID NO: 19) (FIG. 8b).

In data set [4] the test system is hMSCs. Nature of the data set: Cartilage regeneration: chondrocyte differentiation of hMSCs (Sox9, Aggrecan). In kind it is cell-based, Human. To be noted: after 96 hours of culture. On the procedure:
Total RNA was extracted by using the RNeasy total RNA kit (Qiagen®) according to the manufacturer's instructions. Purified total RNA was used as a template in order to make cDNA by a reverse transcription reaction (Gibco Brl®) with random primers (Invitrogen®). The cDNA was then used as a template for a real-time PCR amplification in the presence of SYBR green reagents (Bio-Rad®) by using a thermocycler (iCycler, Biorad®). Data were analyzed with the iCycler IQ™® software and compared by the ΔΔCt method. […]
Total RNA was extracted by using the RNeasy Mini Kit (Qiagen) and […] RNA was used for cDNA synthesis with AMV kit (Invitrogen®) according to the manufacturer′ instructions. Semi-quantitative reverse transcriptase-polymerase chain reaction (RT-PCR) was performed with Taq DNA Polymerase (Invitrogen®) in a thermocycler (Bio-Rad®). […] The PCR products were analyzed on 2% agarose gels. For the Aggrecan gene, the PCR bands were densitometrically quantified by using the BioCapt software (Vilber). […]
It was then verified that these hMSCs cultured with and without GFR-binding compounds as defined herein were differentiated into chondrocyte cells by analyzing the expression of the chondrocyte gene biomarker: Aggrecan. […] For that a semi-quantitative RT-PCR was performed as described in the Methods section for the Aggrecan gene and a Quantitative Real Time PCR for Sox9.

In a further data set the test system is Hair Follicle Stem Cells. Nature of the data set: Activation of hair follicle stem cells (Sox2 expression, BMP-6 release). In kind it is cell-based, Mouse. The text has this: The following starting materials and reagents were used: • Apatite ceramics (also called apatite or ceramic in the present invention) were synthetized as described in Mater Res. 2004; 7(4): 625-630. • Titanium was obtained from Goodfellow®. • Hydrogel (poly(acrylamide-co-acrylic acid) gel) was synthetized as described in Langmuir 2011; 27(22):13635-42. • PEEK was obtained from Goodfellow®. • PET (Poly(ethylene terephthtalate) was obtained from Goodfellow@. • Type-I collagen sponge was obtained from Sigma®. • Hexane was obtained from Sigma®. • 3-succinimidyl-3-maleimidopropionate (SMP) was obtained from Sigma®. • DMF was obtained from Sigma®. • PBS 1× was obtained from Gibco®. • 3-(ethoxydimethylsilyl)propylamine was obtained from Sigma®. • Ammonium persulfate was obtained from Biorad®. • N,N,N′,N′-tetramethylethylenediamine was obtained from Aldrich®. • Acrylamid was obtained from Merck®. • Acrylic acid was obtained from Merck®. • N,N-methylene-bis-acrylamide was obtained from Merck®. • NaOH was obtained from Aldrich®. • N,N,N′,N′-tetramethylethylenediamine was obtained from Aldrich®. • Dimethylaminopropyl-3-ethylcarbodiimide hydrochloride was obtained from Aldrich®. • N-hydroxysuccinimide was obtained from Aldrich®. • 2-(N-morpholino)-ethane sulfonic acid was obtained from Aldrich®. • MilliQ water: is water characterised in terms of resistivity (typically 18.2 MΩ·cm at 25° C.). • Low glucose Dulbecco's Modified Eagle Medium (DMEM) was obtained from Invitrogen® • Minimum Essential Medium Eagle without ascorbic acid (αMEM) was obtained from Invitrogen®. • All of the cell culture experiments were carried out without any serum in the medium for the first 8 hours of culture. • Osteoblast progenitors or precursor osteoblasts: MC3T3-E1 cells were obtained from ATCC®. These cells were cultured in Alpha-MEM medium supplemented with 10% fetal calf serum (FCS) and 1% penicillin/streptomycin. All cells were used at a low passage number (passage 7), were subconfluently cultured and were seeded at 10^4 cells/cm^2 for the purpose of the experiments. • Human bone marrow Mesenchymal Stem Cells (hMSCs) were obtained from Lonza®. These cells were cultured in Alpha-MEM supplemented with 10% (v/v) FBS and 1% penicillin/streptomycin and incubated in a humidified atmosphere containing 5% (v/v) CO2 at 37° C. All cells were used at a low passage number (passage 2 to 4), were subconfluently cultured and were seeded at 10^4 cells/cm^2 for the purpose of the experiments. • Human adipose Mesenchymal Stem Cells (haMSCs) were obtained from Lonza®. These cells were cultured in Alpha-MEM supplemented with 10% (v/v) FBS and 1% penicillin/streptomycin and incubated in a humidified atmosphere containing 5% (v/v) CO2 at 37° C. […]

The test system of another data set is Neurons. Nature of the data set: Neuron growth (dendrite growth, GAP43 Q-PCR). In kind it is cell-based.
Source text: […]

As for “PTSSAPTDLRSVKMAKVEIVRKKPIFKEVQVDMVVKASGDKGVVTY (also: cyclic, ring type not given here) [SEQ ID NO: 742]”, in data set [1], the “CD34+ Expression (%)” value worked out at 33%. In the case of “SEQ ID NO: 9: compound of the invention non-covalently coated on apatite ceramics; tested bound to FITC; sequence not in this part (WWFWGSAISTLYLIGKTPKILKNYQ; also: FITC label, site not given here, cyclic, ring not given here)”, in data set [2], the “release of peptides from the coated material over time” value is on record as “no significant release”. Take “SEQ ID NO: 10: compound of the invention non-covalently coated on type-I collagen sponge; tested bound to FITC; sequence not in this part (GTPGPSAISTLYLIGKTPKILKNYQ; also: cyclic, ring type not given here, bound to FITC, place not given here)”: in data set [2], the “release of peptides from the coated material over time” value was “no significant release”. Consider “SEQ ID NO: 19: GFR-binding compound, osteogenic, coated on apatite ceramics or collagen sponge; sequence not in this part (WWFWGSAISTLYLDEYDKVVLKNYQ; also: cyclic, ring type not given here)”, for which the “production of extracellular matrix proteins such as Osteopontin (OPN)” value in the data set with osteoblast progenitors is “extensive amounts”. In addition, in the data set with hMSCs [3], the ALP activity result is recorded as “increase”.

For the substance “SEQ ID NO: 20: GFR-binding compound, osteogenic, coated on apatite ceramics or collagen sponge; sequence not in this part (GTPGPSAISTLYLGGGGLKNYQ; also: cyclic, ring type not given here)”, the “production of extracellular matrix proteins such as Osteopontin (OPN)” value with osteoblast progenitors is listed as “extensive amounts”. As for “SEQ ID NO: 23: GFR-binding compound inducing cartilage regeneration; sequence not in this part (ELEPLPIVYYVGRKPKVEQLSNGG; also: cyclic, ring type not given here)”, the “expression of the Sox9 protein” value with hMSCs [4] was “expression of the Sox9 protein was observed”.

On to “SEQ ID NO: 24: GFR-binding compound inducing cartilage regeneration; sequence not in this part (EPLPIVYYVGRTPKVEQLSNGG; also: cyclic, ring type not given here)”, for which the “expression of the Sox9 protein” value in the data set with hMSCs [4] is reported as “expression of the Sox9 protein was observed”. As to “SEQ ID NO: 29: GFR-binding compound tested on hair follicle stem cells; sequence not in this part (DENKNSSLSILFFDENKNVVLKVYP; also: cyclic, ring type not given here)”, in the data set with Hair Follicle Stem Cells, the “BMP-6 release in the cell culture medium” value is given as “decrease” and the Sox2 protein expression result is “increase”. Taken in the same sequence, the figures for “SEQ ID NO: 30: GFR-binding compound tested on hair follicle stem cells; sequence not in this part (DENEKSSLSILFFDENEKVVLKVYP; also: cyclic, ring type not given here)” were “decrease” and “increase”. In the case of “SEQ ID NO: 38: neurogenic peptide; sequence not in this part (SPISILYIDAANNVVYKQYEDAAN; also: cyclic, ring type not given here)”, the “establishment of cell-cell contacts via dendrite growth” value in the data set with Neurons (after 6 hours of culture) was “rapid establishment of cell-cell contacts”. Further, the GAP43 gene expression result with Neurons (after 48 hours of culture, Q-PCR) is “high level of expression”. With “VPTAAEPLTMLYYEIVRKKPIFEQLSNMVEHSDDMGVPT (also: cyclic, ring not given here) [SEQ ID NO: 744]”, in data set [1], the “CD34+ Expression (%)” value is listed as 38%. On the same count and under the same terms, next, “VSQAARPVQTRKIDDMGVPTKKATVAAVKSDDMGVPT (also: cyclic, ring not given here) [SEQ ID NO: 741]”: 26%.
